Results from article PMC7794397, “Curbing gastrointestinal infections by defensin fragment modifications without harming commensal microbiota” (Communications Biology, 2021).
Values joined by “and” are separate entries in the source; they are usually repeats but may differ in a detail not shown here. Identical values can stand only once. Like-named read-outs stand apart in the source and are kept apart here. Residues, ends and D or L forms follow the SMILES beside them. *: point of attachment. Palmitoyl = CCCCCCCCCCCCCCCC(=O)*; AEEA = NCCOCCOCC(=O)O

How the values were obtained:
[1] = tested on: S. Typhimurium; test: Salmonella Typhimurium gastrointestinal infection in mice; type: in vivo, C57BL/6N mice; parameters: Body weight (% of initial): unit not given here
Method: For S. Typhimurium infections experiments, age- and sex-matched mice between 10 and 14 weeks of age were used. Both- female and male mice were used in experiments. […] Afterward, mice were supplied with water and food ad libitum. 20 h after streptomycin treatment, water and food were withdrawn again, 4 h before the mice were orally infected with 10^5 CFU of S. Typhimurium in 200 μl PBS. Drinking water ad libitum was supplied immediately and food 2 h post infection (p.i.). […] Mice were weighed every day to record potential body-weight loss. All mice were euthanized by asphyxiation with CO2 at indicated time points. Intestinal tissues (small intestine, cecum, colon) were removed aseptically. To collect intestinal content, organs were flushed with PBS. Organs were opened longitudinally, cleaned thoroughly with PBS and weighted. Organs and content were homogenized in PBS using a Polytron homogenizer ([…]).

[2] = tested on: E. faecium DSM2918 VRE; conditions: DSM2918, 2 h
Method: (§1) Bactericidal activity was assessed by broth microdilution assay. Log-phase bacteria were collected by centrifugation (2500 rpm, 10 min, 4 °C), washed twice with 10 mM sodium phosphate buffer containing 1% (w/v) TSB and the optical density at 600 nm was adjusted to 0.1. Approximately 5 × 10^5 CFU/ml bacteria were incubated with serial peptide concentrations (1.17–150 µM) in a final volume of 100 µl in 10 mM sodium phosphate buffer containing 1% (w/v) TSB for 2 h at 37 °C. After incubation, 100 µl of 6% TSB (w/v) were added and absorbance was measured at 600 nm (Tecan, Switzerland) and monitored for 18 h. Afterward, 100 µl per well were plated on LB agar to determine the numbers of viable bacteria microbiologically. Bactericidal activity is expressed as the LC99.9, the lowest concentration that killed ≥99.9 % of bacteria.

[3] = tested on: P. aeruginosa DSM1117 4-MRGN; conditions: DSM1117, 2 h
Method: as §1

[4] = tested on: A. baumannii DSM30007 4-MRGN
Method: as §1

[5] = tested on: S. aureus DSM20213 MRSA; conditions: DSM20213, 2 h
Method: as §1

[6] = tested on: E. coli 6940 3-MRGN; conditions: 2 h
Method: as §1

[7] = tested on: S. aureus NCTC8325; test: Bacterial membrane potential (DiOC2(3)); type: cell-based; conditions: 30 min of treatment
Method: For determination of membrane potential changes, S. aureus NCTC8325 was grown to log-phase in LB + 0.1% glucose, harvested and the optical density at 600 nm (OD600) was adjusted to 0.5. Bacteria were incubated with 30 µM 3,3′-diethyloxacarbocyanine iodide (DiOC2(3), Invitrogen™) for 15 min in the dark and treated with serial peptide concentrations for 30 min. The protonophore carbonyl cyanide m-chlorophenyl hydrazone (CCCP, Sigma Aldrich) was used as a positive control and DMSO or 0.01% acetic acid as negative controls. Fluorescence was measured at an excitation wavelength of 485 nm and two emission wavelengths, 530 nm (green) and 630 (nm) red, using a microplate reader (Tecan, Switzerland).

[8] = tested on: S. aureus ATCC 25923; type: cell-based; conditions: for Fold change in MIC: relative to MIC of first passage, Mean
Method: Development of resistance to the peptides was assessed with S. aureus and S. Typhimurium. […] Bacteria were cultured overnight at 37 °C at 150 rpm in TSB. Bacteria were washed twice with 10 mM sodium phosphate buffer containing 1% (w/v) TSB. […] After incubation, 100 µl of 6% TSB (w/v) was added and plates incubated in a humidified atmosphere for 21 h at 37 °C and 150 rpm.
The MIC, the lowest concentration of peptide/antibiotic that caused a lack of visible bacterial growth, was determined for each bacterial species. […] This was repeated for 25 passages.

[9] = 250 µg orally 6 and 22 h p.i., 48 h after infection, individual animals, N = 12

## CCCCCCCCCCCCCCCC(=O)NCCOCCOCC(=O)N[C@@H](CCCNC(=N)N)C(=O)NCC(=O)N[C@@H](CCCCN)C(=O)N[C@@H](C)C(=O)N[C@@H](CCCCN)C(=O)N[C@@H](CS)C(=O)N[C@@H](CS)C(=O)N[C@@H](CCCCN)C(=O)O [Pam-3] ({Palmitoyl-AEEA}-RGKAKCCK-OH; C-terminus assumed)
[1]; [9]
  S. Typhimurium in cecum content: 101000000 CFU/ml and 19300000 CFU/ml and 209000000 CFU/ml and 369000000 CFU/ml and 338000000 CFU/ml and 343000000 CFU/ml and 185000000 CFU/ml and 11700000 CFU/ml and 392000000 CFU/ml and 49300000 CFU/ml and 19200000 CFU/ml and 26400000 CFU/ml
  S. Typhimurium in cecum tissue: 22792020 CFU/ml and 690476 CFU/ml and 510638 CFU/ml and 1770972 CFU/ml and 4139241 CFU/ml and 2249657 CFU/ml and 543580 CFU/ml and 809249 CFU/ml and 1834320 CFU/ml and 538642 CFU/ml and 466793 CFU/ml and 451429 CFU/ml
  S. Typhimurium in small intestine content: 19170.1 CFU/ml and 3500 CFU/ml and 430000 CFU/ml and 36000 CFU/ml and 2200 CFU/ml and 10400 CFU/ml and 20600 CFU/ml and 69000 CFU/ml and 70112.2 CFU/ml and 111188 CFU/ml and 78651.7 CFU/ml and 1597222 CFU/ml
  S. Typhimurium in small intestine tissue: 6700.17 CFU/ml and 99601.6 CFU/ml and 75335.4 CFU/ml and 1784.12 CFU/ml and 22916.7 CFU/ml and 29579.1 CFU/ml and 9803.92 CFU/ml and 82191.8 CFU/ml and 12841.1 CFU/ml and 8221.99 CFU/ml and 14925.4 CFU/ml and 10101 CFU/ml
[1]; Day 0 of S. Typhimurium infection, individual animals, N = 12
  Body weight (% of initial): 100
[1]; Day 1 of S. Typhimurium infection, 250 µg orally 6 and 22 h p.i., individual animals, N = 12
  Body weight (% of initial): 94.8627 and 88.6861 and 93.3869 and 93.4108 and 92.7247 and 90.6285 and 93.2755 and 91.8377 and 90.7373 and 93.6733 and 93.6223 and 95.0622
[1]; Day 2 of S. Typhimurium infection, 250 µg orally 6 and 22 h p.i., individual animals, N = 12
  Body weight (% of initial): 94.2562 and 87.7476 and 94.3788 and 93.5562 and 89.4912 and 89.5623 and 93.1887 and 92.315 and 87.1434 and 90.8742 and 93.7891 and 93.0505
[1]; Fig. 6d
  weight loss during infection (in words): tends to reduce weight loss
[1]; Mann–Whitney p < 0.0001 and p = 0.0409
  CFU of S. Typhimurium in cecum content and tissue vs PBS (in words): significantly reduced
[1]; Mann–Whitney p = 0.0024
  bacterial load in small intestine content vs PBS (in words): lowered the bacterial load
[1]; Mann–Whitney p = 0.8621
  bacterial load in small intestine tissue vs PBS (in words): without affecting
[2]
  LC99.9: 9.38 (4.87-9.38) μM
[3]
  LC99.9: 9.38 µM
[4]
  growth inhibition of colistin- and tigecycline-resistant isolate (in words): inhibited the growth
[5]
  LC99.9: 9.38 (4.87-9.38) μM
[6]
  LC99.9: 9.38 µM
[7]
  effect on membrane potential (in words): breakdown of the membrane potential in a concentration-dependent manner
[8]; Day (passage) 0
  Fold change in MIC: 1.0
[8]; Day (passage) 1
  Fold change in MIC: 0.7
[8]; Day (passage) 2
  Fold change in MIC: 1.0
[8]; Day (passage) 3
  Fold change in MIC: 1.0
[8]; Day (passage) 4
  Fold change in MIC: 1.3
[8]; Day (passage) 5
  Fold change in MIC: 1.2
[8]; Day (passage) 6
  Fold change in MIC: 0.8
[8]; Day (passage) 7
  Fold change in MIC: 0.7
[8]; Day (passage) 8
  Fold change in MIC: 0.8
[8]; Day (passage) 9
  Fold change in MIC: 1.0
[8]; Day (passage) 10
  Fold change in MIC: 1.3
[8]; Day (passage) 11
  Fold change in MIC: 1.3
[8]; Day (passage) 12
  Fold change in MIC: 1.2
[8]; Day (passage) 13
  Fold change in MIC: 1.2
[8]; Day (passage) 14
  Fold change in MIC: 1.3
[8]; Day (passage) 15
  Fold change in MIC: 1.2
[8]; Day (passage) 16
  Fold change in MIC: 0.7
[8]; Day (passage) 17
  Fold change in MIC: 1.3
[8]; Day (passage) 18
  Fold change in MIC: 0.7
[8]; Day (passage) 19
  Fold change in MIC: 1.8
[8]; Day (passage) 20
  Fold change in MIC: 1.2
[8]; Day (passage) 21
  Fold change in MIC: 1.0
[8]; Day (passage) 22
  Fold change in MIC: 1.3
[8]; Day (passage) 23
  Fold change in MIC: 1.2
[8]; Day (passage) 24
  Fold change in MIC: 1.3
[8]; Day (passage) 25
  Fold change in MIC: 1.2
[8]; sub-inhibitory concentrations for 25 passages
  increase in MIC (in words): no significant increase
